Test results as given in patent US9204640B2, “2-acyloxy-pyrrolin-4-ones” (BAYER INTELLECTUAL PROPERTY GMBH, priority 2011, dated 2015).

Columns and labels:
Assay type in all cases: in vivo
[1] = tested on: Myzus persicae; assay: Myzus test (MYZUPE spray treatment); settings: application rate 500 g/ha, after 5 days, Chinese cabbage leaf discs
Protocol: Myzus Test (MYZUPE Spray Treatment) [table] To produce a suitable preparation of active compound, 1 part by weight of active compound is mixed with the stated amount of solvent and emulsifier, and the concentrate is diluted with emulsifier-containing water to the desired concentration. Discs of Chinese cabbage (Brassica pekinensis) infected by all stages of the green peach aphid (Myzus persicae) are sprayed with an active compound preparation of the desired concentration. After 5 days, the effect in % is determined 100% means that all of the aphids have been killed; 0% means that none of the aphids have been killed. Myzus Test (MYZUPE Spray Treatment) To produce a suitable preparation of active compound, 1 part by weight of active compound is mixed with the stated amount of solvent and emulsifier, and the concentrate is diluted with emulsifier-containing water to the desired concentration. Discs of Chinese cabbage (Brassica pekinensis) infected by all stages of the green peach aphid (Myzus persicae) are sprayed with an active compound preparation of the desired concentration. After the desired period of time, the activity in % is determined. 100% means that all of the aphids have been killed; 0% means that none of the aphids have been killed.

[2] = tested on: Avena sativa; assay: Herbicidal post-emergence action, AVESA; settings: 320 g/ha
Description: (§1) • Seeds of monocotyledonous and dicotyledonous weed plants and crop plants are placed in wood-fiber pots in sandy loam and covered with soil. The test compounds, formulated in the form of wettable powders (WP) or emulsion concentrates (EC), are then, as an aqueous suspension with a water application rate of 600-800 l/ha (converted), with 0.1-0.2% of wetting agent added, applied at various dosages to the surface of the covering soil. • After the treatment, the pots are placed in a greenhouse and kept under good growth conditions for the test plants. […] Herbicidal Post-Emergence Action (Post) • Seeds of monocotyledonous and dicotyledonous weed and crop plants are placed in sandy loam in wood-fiber pots, covered with soil and cultivated in a greenhouse under good growth conditions. 2-3 weeks (stages 10-13 according to the BBCH scale) after sowing, the test plants are treated at a height of 5-10 cm. The test compounds, formulated as wettable powders (WP) or emulsion concentrates (EC), are then, with a water application rate of 600-800 l/ha (converted), with 0.1-0.2% of wetting agent added, sprayed at various dosages onto the green parts of the plants. […]

[3] = tested on: Amaranthus retroflexus; assay: Herbicidal post-emergence action, AMARE; settings: 320 g/ha
Description: as §1

[4] = tested on: Sinapis alba; assay: Herbicidal post-emergence action, SINAL; settings: 320 g/ha
Description: as §1

[5] = tested on: Lolium multiflorum; assay: Herbicidal post-emergence action, LOLMU
Protocol: (§2) 2. Herbicidal Post-Emergence Action
(§3) • Seeds of monocotyledonous and dicotyledonous weed and crop plants are placed in sandy loam in wood-fiber pots, covered with soil and cultivated in a greenhouse under good growth conditions. 2 to 3 weeks after sowing, the test plants are treated at the one-leaf stage. The test compounds, formulated as wettable powders (WP), are then, with a water application rate of 600 l/ha (converted), with 0.2% of wetting agent added, sprayed at various dosages onto the green parts of the plants. After the test plants have been kept in the greenhouse under optimum growth conditions for about 3 weeks, the activity of the preparations is rated visually in comparison to untreated controls (herbicidal activity in percent: 100% activity=the plants have died, 0% activity=like control plants). • In addition to the compounds mentioned above, the following compounds show an activity of 90-100% against Alopecurus myosuroides, Avena fatua, Digitaria sanguinalis, Echinocloa crus-galli, Lolium multiflorum, Setaria viridis and Sorghum halapense when applied by the post-emergence method at 320 g/ha: I-a-2, I-a-4, I-a-5, I-a-7, I-a-9, I-a-10, I-a-11, I-a-12, I-a-13, I-a-15. • In addition to the compounds mentioned above, the following compounds show an activity of 90-100% against Alopecurus myosuroides, Avena fatua, Echinocloa crus-galli, Lolium multiflorum and Setaria viridis when applied by the post-emergence method at 80 g/ha: I-a-1, I-b-2.
(§4) • Seeds of monocotyledonous and dicotyledonous weed plants and crop plants are placed in wood-fiber pots in sandy loam and covered with soil. The test compounds, formulated in the form of wettable powders (WP) or emulsion concentrates (EC), are then, as an aqueous suspension with a water application rate of 600-800 l/ha (converted), with 0.1-0.2% of wetting agent added, applied at various dosages to the surface of the covering soil. • After the treatment, the pots are placed in a greenhouse and kept under good growth conditions for the test plants. […] Herbicidal Post-Emergence Action (Post) • Seeds of monocotyledonous and dicotyledonous weed and crop plants are placed in sandy loam in wood-fiber pots, covered with soil and cultivated in a greenhouse under good growth conditions. 2-3 weeks (stages 10-13 according to the BBCH scale) after sowing, the test plants are treated at a height of 5-10 cm. The test compounds, formulated as wettable powders (WP) or emulsion concentrates (EC), are then, with a water application rate of 600-800 l/ha (converted), with 0.1-0.2% of wetting agent added, sprayed at various dosages onto the green parts of the plants.
(§5) AVEFA: Avena fatua LOLMU: Lolium multiflorum SETVI: Setaria viridis CHEAL: Chenopodium album VIOTR: Viola tricolor VERPE: Veronica persica ORYSA: Oryza sativa TRZAS: Triticum aestivum ZEAMX: Zea mays ALOMY: Alopecurus myosuroides DIGSA: Digitaria sanguinalis ECHCG: Echinocloa crus-galli SORHA: Sorghum halepense AVESA: Avena sativa AMARE: Amaranthus retroflexus SINAL: Sinapis alba STEME: Stellaria media

[6] = tested on: Stellaria media; assay: Herbicidal post-emergence action, STEME; settings: 320 g/ha
Description: as §1

[7] = tested on: Setaria viridis; assay: Herbicidal post-emergence action, SETVI
Protocol: as §2, §3, §4, §5

[8] = tested on: Setaria viridis; assay: Herbicidal pre-emergence action, SETVI; settings: Setaria viridis, pre-emergence, 320 g/ha
Description: (§6) 1. Herbicidal Pre-Emergence Action
(§7) • Seeds of monocotyledonous and dicotyledonous weed plants and crop plants are placed in wood-fiber pots in sandy loam and covered with soil. The test compounds, formulated in the form of wettable powders (WP), are then, as an aqueous suspension with a water application rate of 600 l/ha (converted), with 0.2% of wetting agent added, applied at various dosages to the surface of the covering soil. • After the treatment, the pots are placed in a greenhouse and kept under good growth conditions for the test plants. The visual assessment of the damage to the test plants is carried out after a trial period of about 3 weeks by comparison with untreated controls (herbicidal activity in percent: 100% activity=the plants have died, 0% activity=like control plants). • In addition to the compounds mentioned above, the following compounds show an activity of 90-100% against Alopecurus myosuroides, Digitaria sanguinalis, Echinocloa crus-galli, Lolium multiflorum, Setaria viridis and Sorghum halapense when applied by the pre-emergence method at 320 g/ha of a.i.: I-a-2, I-a-10, I-a-11, I-a-12.
(§8) 1. Herbicidal Pre-Emergence Action (Pre)
as §4, §5

[9] = tested on: Chenopodium album; assay: Herbicidal pre-emergence action, CHEAL; settings: Chenopodium album, pre-emergence
Description: as §8, §1

[10] = tested on: Viola tricolor; assay: Herbicidal pre-emergence action, VIOTR; settings: Viola tricolor, pre-emergence
Description: as §8, §1

[11] = tested on: Veronica persica; assay: Herbicidal pre-emergence action, VERPE; settings: Veronica persica, pre-emergence
Description: as §8, §1

[12] = tested on: Avena fatua; assay: Herbicidal pre-emergence action, AVEFA; settings: Avena fatua, pre-emergence
Description: as §6, §7, §8
(§9) • Seeds of monocotyledonous and dicotyledonous weed plants and crop plants are placed in wood-fiber pots in sandy loam and covered with soil. […]

[13] = tested on: Lolium multiflorum; assay: Herbicidal pre-emergence action, LOLMU; settings: Lolium multiflorum, pre-emergence
Description: as §6, §7, §8, §9

[14] = tested on: Zea mays; assay: Herbicidal post-emergence action, ZEAMX; settings: Zea mays, post-emergence, 80 g/ha
Description: as §4, §5

[15] = tested on: Alopecurus myosuroides; assay: Herbicidal post-emergence action, ALOMY; settings: Alopecurus myosuroides, post-emergence, 80 g/ha
Protocol: as §2, §3, §4, §5

[16] = tested on: Avena fatua; assay: Herbicidal post-emergence action, AVEFA; settings: Avena fatua, post-emergence, 80 g/ha
Protocol: as §2, §3, §4, §5

[17] = tested on: Digitaria sanguinalis; assay: Herbicidal post-emergence action, DIGSA; settings: Digitaria sanguinalis, post-emergence, 80 g/ha
Protocol: as §2, §3, §4, §5

[18] = tested on: Echinocloa crus-galli; assay: Herbicidal post-emergence action, ECHCG; settings: Echinochloa crus-galli, post-emergence, 80 g/ha
Protocol: as §2, §3, §4, §5

[19] = tested on: Oryza sativa; assay: Herbicidal post-emergence action, ORYSA; settings: Oryza sativa, post-emergence, 80 g/ha
Description: as §4, §5

[20] = tested on: Sorghum halepense; assay: Herbicidal post-emergence action, SORHA; settings: Sorghum halepense, post-emergence
Protocol: as §2, §3, §4, §5

[21] = tested on: Triticum aestivum; assay: Herbicidal post-emergence action, TRZAS; settings: Triticum aestivum, post-emergence, 80 g/ha
Description: as §4, §5

[22] = tested on: Veronica persica; assay: Herbicidal post-emergence action, VERPE; settings: Veronica persica, post-emergence
Description: as §1

With CCc1cc(Cl)cc(OC)c1C1=C(OC(=O)C(C)(C)C)NC2(CCC(OC)CC2)C1=O (stereo not drawn) [I-a-9] the “effect in % (aphids killed)” value [1] was 80%, the “% Activity AVESA” value [2] was 90% and the “% Activity AMARE” value [3] was 40%. For the same compound, the “% Activity SINAL” value [4] was 60%, the “% Activity LOLMU” value ([5]; 320 g/ha) was 100% and the “% Activity STEME” value [6] was 40%. The “% Activity SETVI” value ([7]; 320 g/ha) was 100%.

CCc1cc(Cl)cc(Cl)c1C1=C(OC(=O)C(C)(C)C)C2(CCC(C)CC2)NC1=O (stereo not drawn) [I-b-12 known from WO 04/065366] showed an inhibition at 320 g/ha [8] of 40%, an inhibition at 320 g/ha [9] of 0% and an inhibition at 320 g/ha [10] of 0%. It also gave an inhibition at 320 g/ha [11] of 0%, an inhibition at 320 g/ha [12] of 0% and an inhibition at 320 g/ha [13] of 40%.

In the case of CCc1cccc(Cl)c1C1=C(OC(=O)C(C)(C)C)C2(CCC(C)CC2)NC1=O (stereo not drawn) [I-b-12 known from WO 04/065366], the inhibition at 80 g/ha [14] was 0%, the inhibition at 80 g/ha [15] was 0% and the inhibition at 80 g/ha [16] was 0%. For the same compound, the inhibition at 80 g/ha [17] was 30%, the inhibition at 80 g/ha [18] was 40% and the inhibition at 80 g/ha [19] was 0%. It also gave an inhibition at 80 g/ha ([5]; Lolium multiflorum, post-emergence, 80 g/ha) of 0%, an inhibition at 80 g/ha [20] of 0% and an inhibition at 80 g/ha [21] of 0%. The inhibition at 80 g/ha ([7]; Setaria viridis, post-emergence, 80 g/ha) was 30% and the inhibition at 80 g/ha [22] was 0%.
